Experimental data published in ChEMBL document CHEMBL5055656, “Synthesis of novel indole-thiazolidinone hybrid structures as promising scaffold with anticancer potential” (Bioorg Med Chem, 2021).
Active and inactive are the calls of the source. The rule behind the calls is not given here.

Key:
[1] = tested on: HepG2; assay: Cytotoxicity against human HepG2 cells assessed as cell growth inhibition measured after 72 hrs by MTT assay; assay type: functional
[2] = Selectivity index, ratio of GI50 for human HaCaT cells to GI50 for human HeLa cells; assay type: toxicity; details: HaCaT cells versus HeLa cells, read-out: RatioGI50
[3] = Selectivity index, ratio of GI50 for human HaCaT cells to GI50 for human MCF7 cells; assay type: toxicity; details: HaCaT cells versus MCF7 cells, read-out: RatioGI50
[4] = Cytotoxicity against mouse BALB/3T3 cells assessed as cell growth inhibition measured after 72 hrs by MTT assay; assay type: cell-based
[5] = tested on: MCF7; assay: Cytotoxicity against human MCF7 cells assessed as cell growth inhibition measured after 72 hrs by MTT assay; assay type: functional
[6] = tested on: A549; assay: Cytotoxicity against human A549 cells assessed as cell growth inhibition measured after 72 hrs by MTT assay; assay type: functional
[7] = Selectivity index, ratio of GI50 for human HaCaT cells to GI50 for human A549 cells; assay type: toxicity; details: HaCaT cells versus A549 cells, read-out: RatioGI50
[8] = tested on: HCT-116; assay: Cytotoxicity against human HCT-116 cells assessed as cell growth inhibition measured after 72 hrs by MTT assay; assay type: functional
[9] = Selectivity index, ratio of GI50 for mouse BALA/3T3 cells to GI50 for human HCT-116 cells; assay type: toxicity; details: BALA/3T3 cells versus HCT-116 cells, read-out: RatioGI50
[10] = Selectivity index, ratio of GI50 for human HaCaT cells to GI50 for human HCT-116 cells; assay type: toxicity; details: HaCaT cells versus HCT-116 cells, read-out: RatioGI50
[11] = Cytotoxicity against human HaCaT cells assessed as cell growth inhibition measured after 72 hrs by MTT assay; assay type: cell-based
[12] = Selectivity index, ratio of GI50 for human HaCaT cells to GI50 for human WM793 cells
[13] = Selectivity index, ratio of GI50 for human HaCaT cells to GI50 for human HepG2 cells; assay type: toxicity; details: HaCaT cells versus HepG2 cells, read-out: RatioGI50
[14] = Selectivity index, ratio of GI50 for mouse BALA/3T3 cells to GI50 for human MCF7 cells; assay type: toxicity; details: BALA/3T3 cells versus MCF7 cells, read-out: RatioGI50
[15] = tested on: HeLa; assay: Cytotoxicity against human HeLa cells assessed as cell growth inhibition measured after 72 hrs by MTT assay; assay type: functional
[16] = Selectivity index, ratio of GI50 for human HaCaT cells to GI50 for human THP-1 cells
[17] = Selectivity index, ratio of GI50 for mouse BALA/3T3 cells to GI50 for human HeLa cells; assay type: toxicity; details: BALA/3T3 cells versus HeLa cells, read-out: RatioGI50
[18] = Selectivity index, ratio of GI50 for mouse BALA/3T3 cells to GI50 for human HepG2 cells; assay type: toxicity; details: BALA/3T3 cells versus HepG2 cells, read-out: RatioGI50
[19] = Selectivity index, ratio of GI50 for human HaCaT mouse BALA/3T3 cells to GI50 for human A549 cells; assay type: toxicity; details: read-out: RatioGI50
[20] = tested on: THP-1; assay: Cytotoxicity against human THP-1 cells assessed as cell growth inhibition measured after 72 hrs by MTT assay; assay type: functional
[21] = tested on: WM793; assay: Cytotoxicity against human WM793 cells assessed as cell growth inhibition measured after 72 hrs by MTT assay; assay type: functional
[22] = Selectivity index, ratio of GI50 for mouse BALA/3T3 cells to GI50 for human THP-1 cells
[23] = Selectivity index, ratio of GI50 for mouse BALA/3T3 cells to GI50 for human WM793 cells
[24] = Cytotoxicity against human HaCaT cells assessed as cell growth inhibition at 100 uM measured after 72 hrs by MTT assay relative to control; assay type: cell-based; details: read-out: Activity
[25] = tested on: HepG2; assay: Induction of apoptosis in human HepG2 cells assessed as increase in Cdk2 expression at 1.6 uM after 24 hrs by Western blot analysis; assay type: functional, cell-based
[26] = tested on: Salmon testes DNA; assay: Displacement of methyl green from salmon sperm DNA at 1 uM measured after 2 hrs by fluorescence plate reader method relative to control; assay type: cell-based; details: Salmo salar, Spermatozoa
[27] = tested on: HCT-116; assay: Induction of DNA damage in human HCT-116 cells assessed as increase in tail length incubated at 0.5 uM measured after 24 hrs by alkaline Comet assay; assay type: functional
[28] = tested on: HepG2; assay: Induction of DNA damage in human HepG2 cells assessed as increase in olive tail moment incubated at 0.5 uM measured after 24 hrs by alkaline Comet assay; assay type: functional
[29] = tested on: HepG2; assay: Induction of DNA damage in human HepG2 cells assessed as increase in tail length incubated at 0.5 uM measured after 24 hrs by alkaline Comet assay; assay type: functional
[30] = tested on: MCF7; assay: Induction of apoptosis in human MCF7 cells assessed as activation of cleaved PARP1 expression at 0.7 uM incubated for 24 hrs by Western blot analysis; assay type: functional, cell-based
[31] = tested on: HepG2; assay: Induction of apoptosis in human HepG2 cells assessed as effect on phospho-Rb expression at 1.6 uM after 24 hrs by Western blot analysis; assay type: functional, cell-based
[32] = tested on: HCT-116; assay: Induction of apoptosis in human HCT-116 cells assessed as activation of cleaved PARP1 expression at 0.7 uM incubated for 24 hrs by Western blot analysis; assay type: functional, cell-based
[33] = tested on: BALB/3T3; assay: Induction of DNA damage in mouse BALB/3T3 cells assessed as increase in olive tail moment incubated at 1.6 uM measured after 24 hrs by alkaline Comet assay; assay type: cell-based; details: balb/3t3, 24 h
[34] = tested on: HCT-116; assay: Induction of DNA damage in human HCT-116 cells assessed as increase in olive tail moment incubated at 0.5 uM measured after 24 hrs by alkaline Comet assay; assay type: functional
[35] = tested on: Salmon testes DNA; assay: Displacement of methyl green from salmon sperm DNA at 10 uM measured after 2 hrs by fluorescence plate reader method relative to control; assay type: cell-based; details: Salmo salar, Spermatozoa
[36] = tested on: BALB/3T3; assay: Induction of DNA damage in mouse BALB/3T3 cells assessed as increase in tail length incubated at 1.6 uM measured after 24 hrs by alkaline Comet assay; assay type: cell-based; details: balb/3t3, 24 h
[37] = tested on: HepG2; assay: Induction of apoptosis in human HepG2 cells assessed as increase in Bax expression at 1.6 uM after 24 hrs by Western blot analysis; assay type: functional, cell-based
[38] = tested on: HCT-116; assay: Induction of cell cycle arrest in human HCT-116 cells assessed as decrease in phospho-Rb expression measured after 24 hrs by Western blot analysis; assay type: functional, cell-based
[39] = tested on: HepG2; assay: Induction of apoptosis in human HepG2 cells assessed as increase in phospho-Chk2 expression at 1.6 uM after 24 hrs by Western blot analysis; assay type: functional, cell-based

COC(=O)c1[nH]c2ccc(F)cc2c1C=O
GI50 [1]: > 100 µM | selectivity ratio [2]: 0.67 | selectivity ratio [3]: 0.67 | GI50 at 72 h [4]: 64 µM | GI50 [5]: > 100 µM | GI50 [6]: 44.8 µM | selectivity ratio [7]: 1.49 | GI50 [8]: > 100 µM | selectivity ratio [9]: 0.67 | selectivity ratio [10]: 0.67 | GI50 at 72 h [11]: 69.3 µM | RatioGI50 [12]: 0.81 | selectivity ratio [13]: 0.67 | selectivity ratio [14]: 0.67 | GI50 [15]: 100 µM | RatioGI50 [16]: 8.66 | selectivity ratio [17]: 0.67 | selectivity ratio [18]: 0.67 | selectivity ratio [19]: 1.49 | GI50 [20]: 7.7 µM | GI50 [21]: 82.5 µM | RatioGI50 [22]: 8.66 | RatioGI50 [23]: 0.81

COC(=O)c1[nH]c2ccc(F)cc2c1/C=C1\SC(=O)NC1=O
GI50 [1]: 29.8 µM | selectivity ratio [2]: 2.1 | selectivity ratio [3]: 1.24 | GI50 at 72 h [4]: > 100 µM | GI50 [5]: 80.7 µM | GI50 [6]: 25.4 µM | selectivity ratio [7]: 3.94 | GI50 [8]: 67.6 µM | inhibition at 72 h, 100 µM [24]: 43.4% | selectivity ratio [9]: 1.48 | selectivity ratio [10]: 1.48 | GI50 at 72 h [11]: > 100 µM | RatioGI50 [12]: 1.2 | selectivity ratio [13]: 3.36 | selectivity ratio [14]: 1.24 | GI50 [15]: 47.6 µM | RatioGI50 [16]: 1.72 | selectivity ratio [17]: 2.1 | selectivity ratio [18]: 3.36 | selectivity ratio [19]: 3.94 | GI50 [20]: 45 µM | GI50 [21]: 83.1 µM | RatioGI50 [22]: 1.72 | RatioGI50 [23]: 1.2

COC(=O)c1[nH]c2ccc(F)cc2c1/C=C1\NC(=S)NC1=O
GI50 [1]: 33.9 µM | selectivity ratio [2]: 1.72 | selectivity ratio [3]: 1.57 | GI50 at 72 h [4]: > 100 µM | GI50 [5]: 63.7 µM | GI50 [6]: 49.2 µM | selectivity ratio [7]: 2.03 | GI50 [8]: 53 µM | inhibition at 72 h, 100 µM [24]: 43.3% | selectivity ratio [9]: 1.89 | selectivity ratio [10]: 1.89 | GI50 at 72 h [11]: > 100 µM | RatioGI50 [12]: 1.19 | selectivity ratio [13]: 2.95 | selectivity ratio [14]: 1.57 | GI50 [15]: 58.1 µM | RatioGI50 [16]: 1.72 | selectivity ratio [17]: 1.72 | selectivity ratio [18]: 2.95 | selectivity ratio [19]: 2.03 | GI50 [20]: 58.3 µM | GI50 [21]: 84.2 µM | RatioGI50 [22]: 1.72 | RatioGI50 [23]: 1.19

COC(=O)c1[nH]c2ccc(F)cc2c1/C=C1\SC(=O)NC1=S
GI50 [1]: 60.9 µM | selectivity ratio [2]: 1.57 | selectivity ratio [3]: 1.64 | GI50 at 72 h [4]: 89.2 µM | GI50 [5]: 52.5 µM | GI50 [6]: 8.7 µM | selectivity ratio [7]: 9.9 | GI50 [8]: 45.1 µM | selectivity ratio [9]: 1.91 | selectivity ratio [10]: 1.91 | GI50 at 72 h [11]: 83.1 µM | RatioGI50 [12]: 1.04 | selectivity ratio [13]: 1.41 | selectivity ratio [14]: 1.64 | GI50 [15]: 55 µM | RatioGI50 [16]: 3.02 | selectivity ratio [17]: 1.57 | selectivity ratio [18]: 1.41 | selectivity ratio [19]: 9.9 | GI50 [20]: 28.5 µM | GI50 [21]: 83.1 µM | RatioGI50 [22]: 3.02 | RatioGI50 [23]: 1.04

COc1cccc2c1C(=O)c1c(O)c3c(c(O)c1C2=O)C[C@@](O)(C(=O)CO)C[C@@H]3O[C@H]1C[C@H](N)[C@H](O)[C@H](C)O1 [DOXORUBICIN]
GI50 [1]: 0.7 µM | Activity [25]: Active | Activity [26]: 29.2% | GI50 at 72 h [4]: 0.6 µM | Activity [27]: 28.4% | GI50 [5]: 0.4 µM | GI50 [6]: 0.6 µM | GI50 [8]: 0.6 µM | Activity [28]: 6.92 | Activity [29]: 23.4% | Activity [30]: Active | GI50 at 72 h [11]: 0.9 µM | Activity [31]: Active | GI50 [15]: 0.3 µM | Activity [32]: Active | Activity [33]: 5.9 | Activity [34]: 10.3 | GI50 [20]: 0.6 µM | GI50 [21]: 0.6 µM | Activity [35]: 69.7% | Activity [36]: 15.9% | Activity [37]: Active | Activity [38]: Active | Activity [39]: Active

COC(=O)c1[nH]c2ccc(F)cc2c1/C=C1\SC(N)=NC1=O
GI50 [1]: 49.8 µM | selectivity ratio [2]: 0.7 | selectivity ratio [3]: 0.96 | GI50 at 72 h [4]: 30.3 µM | GI50 [5]: 67.7 µM | GI50 [6]: 62.7 µM | selectivity ratio [7]: 1.04 | GI50 [8]: 9.5 µM | inhibition at 72 h, 100 µM [24]: 20.2% | selectivity ratio [9]: 6.86 | selectivity ratio [10]: 6.86 | GI50 at 72 h [11]: > 100 µM | RatioGI50 [12]: 0.66 | selectivity ratio [13]: 1.31 | selectivity ratio [14]: 0.96 | GI50 [15]: 93.3 µM | RatioGI50 [16]: 0.65 | selectivity ratio [17]: 0.7 | selectivity ratio [18]: 1.31 | selectivity ratio [19]: 1.04 | GI50 [20]: 100 µM | GI50 [21]: 98.6 µM | RatioGI50 [22]: 0.65 | RatioGI50 [23]: 0.66
